Where two headings read alike, the source gives them in different places.
Assays:
[1] = aerosol characterisation (MMAD, FPF, FPM) by cascade impactor (Next Generation Impactor) after vibrating mesh nebulization; format: physicochemical; conditions: for released dosage at the mouthpiece as percentage of the nominal value: 3 min nebulization; for FPF (fine particle fraction, <5 μm) / FPM (fine particle mass, 1 μm to 5 μm) / MMAD: vibrating mesh nebulizer; for FPF (fine particle fraction, <5 μm) / FPM (fine particle mass, 1 μm to 5 μm) / MMAD / released dosage: NGI at 4° C.; for released dosage: at the mouthpiece, M-neb dose+ mesh nebulizer; for time of aerosol release: corresponds to 30 strokes/breaths; for residual amounts in the mouthpiece: mouthpiece SK-211
Method: It is expressly stated that the values and ranges disclosed herein refer to measurements of the MMAD, FPF and FPM by means of a cascade impactor (Next Generation Impactor, NGI) cooled down to 4° C.
The particle size distribution (FPM) and the mass median aerodynamic diameter (MMAD) of an aerosol generated from an aqueous solution containing 5-amino-2,3-dihydro-1,4-phthalazinedione sodium salt was analyzed.
Crystalline polymorph Form I of 5-amino-2,3-dihydro-1,4-phthalazinedione sodium salt was solved in physiological saline solution (double distilled water containing 0.9% NaCl). The final concentration solution was 20 mg/ml 5-amino-2,3-dihydro-1,4-phthalazinedione sodium salt.
The experimental procedure was carried out pursuant to Ph. Eur. 2.9.44 (Preparations for Nebulisation: Characterisation). A cascade impactor (Next Generation Impactor (NGI), Copley Scientific Ltd., Nottingham, UK) was used to determine the respective percentage for each fraction of the nebulized particles. The cascade impactor was cooled to 4° C. for the measurements
The nebulization of this aqueous solution of 5-amino-2,3-dihydro-1,4-phthalazinedione sodium salt was carried out by means of a vibrating mesh nebulizer (M-neb-dose+, NEBU-TEC, Eisenfeld, Germany). The thus generated aerosol was delivered to the cascade impactor by means of a mouthpiece (SK-211, NEBU-TEC, Eisenfeld, Germany).
The nebulization chamber (yellow stamp, 250 μl liquid discharge) was filled. The puff profile configured at the breath simulator was chosen in such a way that a correct simulation of inhalation by means of the nebulizer was ensured. The corresponding time was recorded.
The quantification of nebulized 5-amino-2,3-dihydro-1,4-phthalazinedione sodium salt per cascade was carried out after extraction from the cascade pans (stage 1-8) by means of HPLC with reference to an external standard calibration curve (range 0-200 μg/ml; correlation coefficient: 0.9999).
Single values obtained for each cascade were added. […] MMAD, FPF and FPM were calculated from the obtained values: […]
For comparison, the particle size distribution (FPF and FPM) and the mass median aerodynamic diameter (MMAD) of an aerosol generated from a physiological saline solution containing salbutamol sulfate was analyzed (not part of the invention). The procedure was the same as described in Example 2.
Salbutamol is one of the most widely used substances for acute asthma attacks. It is often administered via metered-dose inhalers. Therefore, a physiological saline solution of salbutamol sulfate was tested in order to determine the particle size distribution. The standard dosage (Albutol Sulfate) of 180 μg (90 μg/spray application, 2 spray applications per inhalation session) was dissolved in physiological saline.
The procedure was the same as described in Example 2.
The standard dosage (Atrovent) of 18 μg/spray application was dissolved in physiological saline.

[2] = tested on: cigarette smoke-induced 3-nitrotyrosine formation in the lung parenchyma; conditions: for 3-nitrotyrosine stained surface area, mean ± SEM: n=5 mice, room air 0.24, smoke alone 3.07
Method: 5-amino-2,3-dihydro-1,4-phthalazinedione sodium salt Form I was tested in an isolated, ventilated and perfused mouse lung system that was stimulated with cigarette smoke.
The isolated, ventilated and perfused mouse lung system (ILU) is an established model for studying acute effects of various conditions and drugs on lung parenchyma and vasculature. It is mainly used for examining effects of hypoxia and for evaluating the efficacy of potential drugs on the hypoxic pulmonary vasoreaction (cf. Weissmann et al. (2006) Proc Natl Acad Sci USA 103: 19093-19098).
C57BL/6J mice (n=25, 5 per group; male/female, 3-6 months, 20-30 g; Charles River GmbH, Sulzfeld, Germany) were anesthetized with a ketamine (100 mg/kg body weight) and xylazine (20 mg/kg body weight) intraperitoneal injection (Ceva Tiergesundheit GmbH, Dusseldorf, Germany) containing heparin (50 I.E. heparin/g body weight; Ratiopharm GmbH, Ulm, Germany). The lungs and the heart were removed from the chest cavity and placed on the ILU system (see FIGS. 1A and 1B). Lungs were ventilated in an isolated chamber using normoxic gas (21% O2, 5% CO2, 74% N2; 150 breaths per minute at the PEEP (positive end-expiratory pressure) of 3 cm H2O) and perfused with a modified Krebs-Henseleit buffer (120.0 mM NaCl, 4.3 mM KCl, 1.1 mM KH2PO4, 2.4 mM CaCl2, 1.3 mM MgCl2, 13.14 mM glucose, 0.25 mM hydroxyethyl starch 200000/0.5, 25.0 mM NaHCO3 adjusted to a constant pH range of […] L-arginine; Serag-Wissner GmbH & Co. KG, Naila, Germany) at a temperature of 37° C. Lung weight, right and left ventricle pressure, as well as ventilatory pressure were monitored and recorded during the whole experimental procedure. After 5-10 minutes, when the lung was properly flushed and all the parameters were stable, 5-amino-2,3-dihydro-1,4-phthalazinedione sodium salt was applied by adding 150 μl of a stock solution to 15 ml of the circulating perfusion buffer. The substance was applied 10 minutes prior to the first cigarette smoke application. Cigarette smoke was applied via trachea while lung is perfused with the buffer containing 5-amino-2,3-dihydro-1,4-phthalazinedione sodium salt. Cigarette smoke was prepared freshly before each application, by burning one cigarette (research cigarettes 3R4F, University of Kentucky, USA) in one minute using normoxic gas at the flow of 11/min and collected in a 11 glass bottle containing 5 g silica gel for removing the moist from the cigarette smoke. 50 ml of the cigarette smoke were taken via a syringe and applied to the lung via trachea (FIG. 1A) in deep breaths (periodic inflation for 3-4 s) over a period of 5 min. The application was done manually while carefully monitoring the inspiratory pressure to avoid damage of the lung. The cigarette smoke application was repeated three times with a 1 hour break in-between.
Five treatment groups (n=5, respectively) were investigated:
C: cigarette smoke+0.5 mM 5-amino-2,3-dihydro-1,4-phthalazinedione sodium salt
D: cigarette smoke+1 mM 5-amino-2,3-dihydro-1,4-phthalazinedione sodium salt
E: cigarette smoke+2 mM 5-amino-2,3-dihydro-1,4-phthalazinedione sodium salt
5-amino-2,3-dihydro-1,4-phthalazinedione sodium salt Form I was dissolved in water for injection (vehicle) at the required concentrations described above. Stock solutions were prepared in water for injection. Further 1:100 dilutions were made with modified Krebs-Henseleit buffer (see above). Stock solutions were stored at −70° C. in appropriate aliquots. The required amount of stock solution was thawed, and the corresponding working solution was prepared for immediate use.
One hour after the third cigarette smoke application lungs were removed from the system and fixed by inflating with formalin solution (via trachea) at the pressure of 12-15 cm H2O for two hours at room temperature. Afterwards the fixed lungs were kept in PBS (phosphate buffer saline, see below) at +4° C. until further dehydration and paraffin embedding.

[3] = aerosol from physiological saline solution
[4] = standard dosage in physiological saline
[5] = 20 mg/ml in physiological saline

Row | Compound | released dosage at the mouthpiece as percentage of the nominal value [1] [%] | FPF (fine particle fraction, <5 μm) [1, 3] [%] | FPM (fine particle mass, 1 μm to 5 μm) [1, 3] [%] | MMAD [1, 3] [μm] | released dosage [1, 4] [µg] | time of aerosol release [1] [min] | residual amounts in the mouthpiece [1] | FPM (fine particle mass, 1 μm to 5 μm) [1, 4] [µg] | further results
1 | salbutamol sulfate [reference compound] | 92 | 73.3 | 69.1 | 3.57 | 166 | 3 | No residual amounts | 115 | FPF (fine particle fraction, <5 μm) [1, 4]: 122 µg
2 | Nc1cccc2c(=O)[nH][nH]c(=O)c12.[Na] [5-amino-2,3-dihydro-1,4-phthalazinedione sodium salt] | 95 | 74.3 |  | 3.1 |  | 3 | No residual amounts |  | effect on cigarette smoke induced 3-nitrotyrosine formation (in words) ([2]; 0.5 mM in perfusion buffer): moderate effect; effect on cigarette smoke induced 3-nitrotyrosine formation (in words) ([2]; 1 mM in perfusion buffer): almost completely abolished; effect on cigarette smoke induced 3-nitrotyrosine formation (in words) ([2]; 2 mM in perfusion buffer): almost completely abolished; cigarette smoke-induced 3-nitrotyrosine formation in the lung parenchyma, pre-treatment (in words) ([2]; ILU model, pre-treatment): prevents; 3-nitrotyrosine stained surface area, mean ± SEM ([2]; cigarette smoke + 0.5 mM in perfusion buffer): 2.24 ± 0.28 % area; 3-nitrotyrosine stained surface area, mean ± SEM ([2]; cigarette smoke + 1 mM in perfusion buffer): 0.72 ± 0.26 % area; 3-nitrotyrosine stained surface area, mean ± SEM ([2]; cigarette smoke + 2 mM in perfusion buffer): 0.37 ± 0.13 % area; ROS/RNS levels in cigarette smoke-stimulated mouse lung (in words) ([2]; ex vivo mouse lung, 0.5-2 mM): dose-dependent reduction of ROS/RNS levels down to control levels; FPF (fine particle fraction, <5 μm) [1, 5]: 3500 µg; FPM (fine particle mass, 1 μm to 5 μm) [1, 5]: 3300 µg; FPM (fine particle mass, 1 μm to 5 μm) ([1]; aerosol from physiological saline solution, sodium salt): 69.0%; released dosage [1, 5]: 4700 µg; FPF in comparison ([1]; versus ipratropium bromide): slightly higher; FPM in comparison ([1]; versus ipratropium bromide): slightly smaller; MMAD in comparison ([1]; versus ipratropium bromide): clearly smaller; FPF in comparison ([1]; versus salbutamol sulfate): slightly higher; FPM in comparison ([1]; versus salbutamol sulfate): in a similar range; MMAD in comparison ([1]; versus salbutamol sulfate): clearly smaller
3 | CC(C)[N+]1(C)[C@@H]2CC[C@H]1CC(OC(=O)C(CO)c1ccccc1)C2.[Br-] (stereo partly drawn) [ipratropium bromide, reference compound] | 86 |  | 69.4 | 3.59 | 15 | 3 | No residual amounts | 10 | 
